In ChEMBL document CHEMBL2046354, “Identification of spirocyclic piperidine-azetidine inverse agonists of the ghrelin receptor” (Bioorg Med Chem Lett, 2012):

Assay: Oral bioavailability in Sprague-Dawley rat at 30 mg/kg
Type: ADME, organism-based
Conditions: in vivo

bioavailability: 43%
SMILES: Cc1cn2cc(CC(=O)N3CCC4(CC3)CN(Cc3ccc(-n5nccn5)cc3Cl)C4)nc2s1
